The source of these data is ChEMBL document CHEMBL1142881, “Structure-activity relationships of 19-norvitamin D analogs having a fluoroethylidene group at the C-2 position” (Bioorg Med Chem, 2007).

pEC50: −log10 of the molar value. Where “and” joins values, the source holds several entries; their conditions need not be identical. Equal values may be shown once.

Test [1] has as its target T1, Vitamin D3 receptor (Homo sapiens) (UniProt P11473).
T1 sequence (whole entry): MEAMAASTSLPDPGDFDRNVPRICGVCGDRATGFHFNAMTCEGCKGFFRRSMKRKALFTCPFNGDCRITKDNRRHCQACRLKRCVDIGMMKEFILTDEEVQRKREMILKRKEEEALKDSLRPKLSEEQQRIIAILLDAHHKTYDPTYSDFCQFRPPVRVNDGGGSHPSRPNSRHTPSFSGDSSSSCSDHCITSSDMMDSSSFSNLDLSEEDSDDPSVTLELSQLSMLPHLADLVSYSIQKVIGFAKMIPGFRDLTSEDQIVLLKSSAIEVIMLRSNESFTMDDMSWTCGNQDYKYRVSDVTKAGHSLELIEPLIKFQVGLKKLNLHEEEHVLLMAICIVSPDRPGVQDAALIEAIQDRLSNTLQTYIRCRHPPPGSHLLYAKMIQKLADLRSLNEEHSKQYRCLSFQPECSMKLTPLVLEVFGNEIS
The test can be described thus: Displacement of [3H]1-alpha,25-(OH)2D3 from thymus VDR realtive to 1-alpha,25-(OH)2D3.

The target in the next test is T2, Vitamin D3 receptor (Homo sapiens, UniProt P11473).
T2 sequence (P11473 whole entry): T1 sequence (whole entry)
In words: […] of human VDR induced-transcriptional transactivation of luciferase reporter gene in COS7 cells after 24 hrs. The test is classed as cell-based, COS-7.

Test [2] deals with T3, Vitamin D3 receptor (Rattus norvegicus) (UniProt P13053).
T3 sequence (whole entry): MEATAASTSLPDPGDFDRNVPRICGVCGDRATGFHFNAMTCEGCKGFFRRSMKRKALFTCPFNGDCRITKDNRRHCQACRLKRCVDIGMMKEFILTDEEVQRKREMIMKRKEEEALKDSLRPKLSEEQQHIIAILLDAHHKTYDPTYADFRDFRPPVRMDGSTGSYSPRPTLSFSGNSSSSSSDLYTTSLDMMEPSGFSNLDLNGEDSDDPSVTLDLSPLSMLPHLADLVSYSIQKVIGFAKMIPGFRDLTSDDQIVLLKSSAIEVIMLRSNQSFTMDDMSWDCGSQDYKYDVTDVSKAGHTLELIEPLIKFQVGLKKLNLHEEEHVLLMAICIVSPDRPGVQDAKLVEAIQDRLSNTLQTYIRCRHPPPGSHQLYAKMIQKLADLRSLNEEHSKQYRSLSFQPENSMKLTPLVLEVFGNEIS
The test can be described thus: Displacement of [3H]1-alpha,25-(OH)2D3 from rat recombinant VDR ligand-binding domain expressed in Escherichia coli BL21 realtive to 1-alpha,25-(OH)2D3.

Test [3] deals with T1, Vitamin D3 receptor (Homo sapiens). The test can be described thus: […] of human VDR induced-transcriptional transactivation of luciferase reporter gene in COS7 cells after 24 hrs relative to 1-alpha,25-(OH)2D3. As to conditions: COS-7. In kind it is cell-based.

On to `C[C@H](CCCC(C)(C)O)C1CCC2/C(=C/C=C3C[C@@H](O)C(=CCO)[C@H](O)C3)CCCC21C` (some centres undefined), for which the Activity in test [1] is 2% and 0.007%. Consider `C[C@H](CCCC(C)(C)O)C1CCC2/C(=C/C=C3C[C@@H](O)C(=CCF)[C@H](O)C3)CCCC21C` (some centres undefined) [listing 1 of 3 here], for which the pEC50 on Vitamin D3 receptor is 8.66. The same measure, in the same setting: the result for `C[C@@H](CCCC(C)(C)O)C1CCC2/C(=C/C=C3C[C@@H](O)C(=CCF)[C@H](O)C3)CCCC21C` (some centres undefined) [listing 1 of 3 here] reads 10.15; that for `C[C@H](CCCC(C)(C)O)C1CCC2/C(=C/C=C3C[C@@H](O)C(=CCF)[C@H](O)C3)CCCC21C` (some centres undefined) [listing 2 of 3 here], 9.30.

Take `C[C@@H](CCCC(C)(C)O)C1CCC2/C(=C/C=C3C[C@@H](O)C(=CCF)[C@H](O)C3)CCCC21C` (some centres undefined) [listing 2 of 3 here]: in test [2], the Activity was 0.07% and 1.08%.

Consider `C[C@@H](CCCC(C)(C)O)C1CCC2/C(=C/C=C3C[C@@H](O)C(=CCF)[C@H](O)C3)CCCC21C` (some centres undefined) [listing 3 of 3 here], for which, at Vitamin D3 receptor, the pEC50 was 8.96. As for `C[C@@H](CCCC(C)(C)O)C1CCC2/C(=C/C=C3C[C@@H](O)C(=CCO)[C@H](O)C3)CCCC21C` (some centres undefined), the Activity was 0.02% and 1.6% in test [1]; 4.2 and 12.5 in test [3]. Regarding `C[C@H](CCCC(C)(C)O)C1CCC2/C(=C/C=C3C[C@@H](O)C(=CCF)[C@H](O)C3)CCCC21C` (some centres undefined) [listing 3 of 3 here], the Activity in test [2] is 0.77% and 0.05%.
